Test results published in patent US20250339462A1, “CANCER TREATMENT USING ULTRA-HIGH CONCENTRATION GASEOUS NITRIC OXIDE AND A CHECKPOINT INHIBITOR” (Beyond Air, Inc., priority 2022, published 2025).

System: AH-1+CD8+ T-cells (tumor antigen-specific CD8+ T-cells)
Experiment: Flow cytometry for tumor antigen-specific CD8+ T-cells in blood of CT26 tumor-bearing mice
Format: in vivo, mouse
Details: day 7 after UNO treatment
Experimental: Preparation of cancer cells for injection—Mouse colon carcinoma CT26.WT cells (ATCC, Cat no. CRL-2638) suspended in Hanks' Balanced Salt Solution (HBSS) (Biological Industries, Israel), at a concentration of 5.0×10^6 cells/ml, were freshly prepared on the day of cancer model induction. Cells were grown to 70% confluency and were harvested using trypsin (Biological Industries, Israel), and counted using a cell counter device. The cells were then centrifuged at 1,200 rpm (241×g) for 8 minutes, and the pellet was re-suspended in ice cold HBSS at 5.0×10^6 in 1 ml (5.0×10^5 cells in 100 μl solution). Cell viability was >90% as determined by trypan blue staining prior to inoculation to mice. At the point of inoculation, cells were at passage 8 at most. […]
UNO treatment—On the day of treatment, mice were anesthetized by an intra-peritoneal (i.p.) injection of 100 mg/kg ketamine and 10 mg/kg of xylazine hydrochloride solution. […] After treatment, all mice were warmed and closely monitored until complete recovery was observed. […]
Flow cytometry for tumor antigen-specific CD8+ T-cells—On day 7 after the UNO treatment, 100 μl of peripheral blood was collected by submandibular bleeding from each mouse into tubes containing 0.5M EDTA PH 8.0. […] Data was analyzed using the FlowJo software.

[N]=O [UNO, nitric oxide]
Systemic levels of AH-1+CD8+ T-cells vs untreated or naive mice: higher | AH-1+CD8+ T-cells in the blood (UNO 100,000 ppm 5 min, anti-mCTLA-4 5 mg/kg i.p. twice): detected in the blood of all mice
